Data: ChEMBL document CHEMBL4024702, “Covalent Modifiers: A Chemical Perspective on the Reactivity of α,β-Unsaturated Carbonyls with Thiols via Hetero-Michael Addition Reactions” (J Med Chem, 2017)
pEC50: −log10 of the molar value.

Assays:
[1] = Glutathione reactivity of the compound in DMSO and phosphate buffer assessed as second order rate constant for adduct formation
rhinovirus B14 [2] = assay: Irreversible inhibition of human rhinovirus serotype 14 3C protease assessed as ratio of Kobs/I by spectrofluorimetric analysis
rhinovirus B14 [3] = assay: Antiviral activity against rhinovirus serotype 14 infected in human H1HeLa cells after 2 days by XTT/PMS dye based assay; format: functional, cell-based; conditions: Rhinovirus B, H1-HeLa, 48 h
[4] = Cytotoxicity against human H1HeLa cells after 2 days by XTT/PMS dye based assay; format: cell-based, H1-HeLa

Ratio (rhinovirus B14 [2])	SMILES	K [1]	pEC50 (rhinovirus B14 [3])	CC50 at 48 h [4]
–	CCCC/C=C/C=C/C=O	3.49 M⁻¹ s⁻¹	–	–
7300 M⁻¹ s⁻¹	CCOC(=O)/C(C)=C/[C@H](CCC(N)=O)NC(=O)[C@H](Cc1ccccc1)NC(=O)[C@H](CC(C)C)NC(=O)OCc1ccccc1	–	5.52	> 320 µM
10900 M⁻¹ s⁻¹	CC(C)C[C@H](NC(=O)OCc1ccccc1)C(=O)N[C@@H](Cc1ccccc1)C(=O)N[C@H](/C=C1\CCOC1=O)CCC(N)=O	–	5.28	> 320 µM
500000 M⁻¹ s⁻¹	CC(C)C[C@H](NC(=O)OCc1ccccc1)C(=O)N[C@@H](Cc1ccccc1)C(=O)N[C@H](/C=C/C(=O)c1ccccc1)CCC(N)=O	–	5.40	16 µM
–	C=CCOC(=O)C=C	19.6 M⁻¹ s⁻¹	–	–
–	C=C(C)C=O	203 M⁻¹ s⁻¹	–	–
4500 M⁻¹ s⁻¹	CCN(CC)c1ccc(C(=O)/C=C/[C@H](CCC(N)=O)NC(=O)[C@H](Cc2ccccc2)NC(=O)[C@H](CC(C)C)NC(=O)OCc2ccccc2)cc1	–	< 4.60	25 µM
8500 M⁻¹ s⁻¹	CC(C)C[C@H](NC(=O)OCc1ccccc1)C(=O)N[C@@H](Cc1ccccc1)C(=O)N[C@H](/C=C/C(=O)N1CC=CC1)CCC(N)=O	–	< 4.36	44 µM
–	C=CC(=O)OCCCC	8.54 M⁻¹ s⁻¹	–	–
20000 M⁻¹ s⁻¹	COC(=O)/C=C/[C@H](CCC(N)=O)NC(=O)[C@H](Cc1ccccc1)NC(=O)[C@H](CC(C)C)NC(=O)OCc1ccccc1	–	5.89	> 320 µM
–	C/C=C/C(=O)OC	0.164 M⁻¹ s⁻¹	–	–
–	C/C=C(\C)C(=O)OC	0.007 M⁻¹ s⁻¹	–	–
54000 M⁻¹ s⁻¹	CC(=O)/C=C/[C@H](CCC(N)=O)NC(=O)[C@H](Cc1ccccc1)NC(=O)[C@H](CC(C)C)NC(=O)OCc1ccccc1	–	5.70	60 µM
–	C=CC#CC(C)=O	80 M⁻¹ s⁻¹	–	–
1300 M⁻¹ s⁻¹	CC(C)C[C@H](NC(=O)OCc1ccccc1)C(=O)N[C@@H](Cc1ccccc1)C(=O)N[C@H](/C=C/C(=O)N(C)C)CCC(N)=O	–	4.25	> 100 µM
310000 M⁻¹ s⁻¹	CC(C)C[C@H](NC(=O)OCc1ccccc1)C(=O)N[C@@H](Cc1ccccc1)C(=O)N[C@H](/C=C/C(=O)c1ccc([N+](=O)[O-])cc1)CCC(N)=O	–	< 4.49	32 µM
–	C#CCOC(=O)C=C	51.4 M⁻¹ s⁻¹	–	–
–	CCCCC/C=C/C=O	18 M⁻¹ s⁻¹	–	–

Ratio (rhinovirus B14 [2])	SMILES	K [1]	pEC50 (rhinovirus B14 [3])	CC50 at 48 h [4]
–	C/C=C(\C)C(C)=O	0.779 M⁻¹ s⁻¹	–	–
–	C/C=C/C(C)=O	26.7 M⁻¹ s⁻¹	–	–
–	C=CC(=O)OCC	10.6 M⁻¹ s⁻¹	–	–
2400 M⁻¹ s⁻¹	COC(=O)/C=C\[C@H](CCC(N)=O)NC(=O)[C@H](Cc1ccccc1)NC(=O)[C@H](CC(C)C)NC(=O)OCc1ccccc1	–	5.38	> 320 µM
–	CC/C=C/C=O	28.3 M⁻¹ s⁻¹	–	–
–	CC(=O)C=C(C)C	0.208 M⁻¹ s⁻¹	–	–
–	CC1=CCCC1=O	0.2 M⁻¹ s⁻¹	–	–
600000 M⁻¹ s⁻¹	CC(C)C[C@H](NC(=O)OCc1ccccc1)C(=O)N[C@@H](Cc1ccccc1)C(=O)N[C@H](/C=C/C(=O)N1CCOC1=O)CCC(N)=O	–	5.80	> 100 µM
–	CCC/C=C/C/C=C/C=O	22.8 M⁻¹ s⁻¹	–	–
–	CCCC/C=C/C(C)=O	11.4 M⁻¹ s⁻¹	–	–
156000 M⁻¹ s⁻¹	CC(=O)N1CC/C(=C\[C@H](CCC(N)=O)NC(=O)[C@H](Cc2ccccc2)NC(=O)[C@H](CC(C)C)NC(=O)OCc2ccccc2)C1=O	–	6.15	> 100 µM
–	CCCCC/C=C/C(=O)OC	0.785 M⁻¹ s⁻¹	–	–
350 M⁻¹ s⁻¹	CCNC(=O)/C=C/[C@H](CCC(N)=O)NC(=O)[C@H](Cc1ccccc1)NC(=O)[C@H](CC(C)C)NC(=O)OCc1ccccc1	–	< 3.49	> 320 µM
53000 M⁻¹ s⁻¹	CC(C)C[C@H](NC(=O)OCc1ccccc1)C(=O)N[C@@H](Cc1ccccc1)C(=O)N[C@H](/C=C/C(=O)n1ccc2ccccc21)CCC(N)=O	–	5.74	29 µM
–	CC(C)=CC=O	1.71 M⁻¹ s⁻¹	–	–
–	C=C(C=O)CC	59.4 M⁻¹ s⁻¹	–	–
–	CCOC(=O)/C=C/[C@H](CCC(N)=O)NC(=O)[C@H](Cc1ccccc1)NC(=O)[C@H](CC(C)C)NC(=O)OCc1ccccc1	–	–	> 320 µM
